{
  "source": "ChEMBL document CHEMBL1201862",
  "about": "“PubChem BioAssay data set” (2004)",
  "key": {"[1]": {"biological_target": "Eukaryotic translation initiation factor 4H (Homo sapiens, UniProt Q15056)", "assay": "eIF4H inhibition in translation initiation, SAR follow-up (AID 435011)", "format": "functional"}, "[2]": {"biological_target": "Polyadenylate-binding protein 1 (Homo sapiens, UniProt P11940)", "assay": "PABP inhibition in translation initiation, SAR follow-up (AID 435018)", "format": "functional"}, "[3]": {"biological_target": "Cytochrome P450 2C9 (Homo sapiens, UniProt P11712)", "sequence (P11712 whole entry)": "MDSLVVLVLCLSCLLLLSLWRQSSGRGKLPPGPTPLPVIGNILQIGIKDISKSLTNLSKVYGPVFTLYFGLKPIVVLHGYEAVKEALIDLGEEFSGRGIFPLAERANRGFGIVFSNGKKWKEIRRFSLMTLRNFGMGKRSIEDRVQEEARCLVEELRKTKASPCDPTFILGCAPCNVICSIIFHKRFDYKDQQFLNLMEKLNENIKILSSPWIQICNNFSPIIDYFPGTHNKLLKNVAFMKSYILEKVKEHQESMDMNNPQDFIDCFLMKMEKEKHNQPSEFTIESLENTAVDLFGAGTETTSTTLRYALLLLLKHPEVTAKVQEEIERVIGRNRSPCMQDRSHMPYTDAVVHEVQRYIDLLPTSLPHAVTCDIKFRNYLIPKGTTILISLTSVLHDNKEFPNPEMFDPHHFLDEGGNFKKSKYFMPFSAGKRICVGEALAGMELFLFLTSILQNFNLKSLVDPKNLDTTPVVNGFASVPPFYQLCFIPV", "settings": "Potency"}, "[4]": {"biological_target": "T1, Voltage-dependent T-type calcium channel subunit alpha-1H (Homo sapiens, UniProt O95180)", "T1 sequence (O95180 whole entry)": "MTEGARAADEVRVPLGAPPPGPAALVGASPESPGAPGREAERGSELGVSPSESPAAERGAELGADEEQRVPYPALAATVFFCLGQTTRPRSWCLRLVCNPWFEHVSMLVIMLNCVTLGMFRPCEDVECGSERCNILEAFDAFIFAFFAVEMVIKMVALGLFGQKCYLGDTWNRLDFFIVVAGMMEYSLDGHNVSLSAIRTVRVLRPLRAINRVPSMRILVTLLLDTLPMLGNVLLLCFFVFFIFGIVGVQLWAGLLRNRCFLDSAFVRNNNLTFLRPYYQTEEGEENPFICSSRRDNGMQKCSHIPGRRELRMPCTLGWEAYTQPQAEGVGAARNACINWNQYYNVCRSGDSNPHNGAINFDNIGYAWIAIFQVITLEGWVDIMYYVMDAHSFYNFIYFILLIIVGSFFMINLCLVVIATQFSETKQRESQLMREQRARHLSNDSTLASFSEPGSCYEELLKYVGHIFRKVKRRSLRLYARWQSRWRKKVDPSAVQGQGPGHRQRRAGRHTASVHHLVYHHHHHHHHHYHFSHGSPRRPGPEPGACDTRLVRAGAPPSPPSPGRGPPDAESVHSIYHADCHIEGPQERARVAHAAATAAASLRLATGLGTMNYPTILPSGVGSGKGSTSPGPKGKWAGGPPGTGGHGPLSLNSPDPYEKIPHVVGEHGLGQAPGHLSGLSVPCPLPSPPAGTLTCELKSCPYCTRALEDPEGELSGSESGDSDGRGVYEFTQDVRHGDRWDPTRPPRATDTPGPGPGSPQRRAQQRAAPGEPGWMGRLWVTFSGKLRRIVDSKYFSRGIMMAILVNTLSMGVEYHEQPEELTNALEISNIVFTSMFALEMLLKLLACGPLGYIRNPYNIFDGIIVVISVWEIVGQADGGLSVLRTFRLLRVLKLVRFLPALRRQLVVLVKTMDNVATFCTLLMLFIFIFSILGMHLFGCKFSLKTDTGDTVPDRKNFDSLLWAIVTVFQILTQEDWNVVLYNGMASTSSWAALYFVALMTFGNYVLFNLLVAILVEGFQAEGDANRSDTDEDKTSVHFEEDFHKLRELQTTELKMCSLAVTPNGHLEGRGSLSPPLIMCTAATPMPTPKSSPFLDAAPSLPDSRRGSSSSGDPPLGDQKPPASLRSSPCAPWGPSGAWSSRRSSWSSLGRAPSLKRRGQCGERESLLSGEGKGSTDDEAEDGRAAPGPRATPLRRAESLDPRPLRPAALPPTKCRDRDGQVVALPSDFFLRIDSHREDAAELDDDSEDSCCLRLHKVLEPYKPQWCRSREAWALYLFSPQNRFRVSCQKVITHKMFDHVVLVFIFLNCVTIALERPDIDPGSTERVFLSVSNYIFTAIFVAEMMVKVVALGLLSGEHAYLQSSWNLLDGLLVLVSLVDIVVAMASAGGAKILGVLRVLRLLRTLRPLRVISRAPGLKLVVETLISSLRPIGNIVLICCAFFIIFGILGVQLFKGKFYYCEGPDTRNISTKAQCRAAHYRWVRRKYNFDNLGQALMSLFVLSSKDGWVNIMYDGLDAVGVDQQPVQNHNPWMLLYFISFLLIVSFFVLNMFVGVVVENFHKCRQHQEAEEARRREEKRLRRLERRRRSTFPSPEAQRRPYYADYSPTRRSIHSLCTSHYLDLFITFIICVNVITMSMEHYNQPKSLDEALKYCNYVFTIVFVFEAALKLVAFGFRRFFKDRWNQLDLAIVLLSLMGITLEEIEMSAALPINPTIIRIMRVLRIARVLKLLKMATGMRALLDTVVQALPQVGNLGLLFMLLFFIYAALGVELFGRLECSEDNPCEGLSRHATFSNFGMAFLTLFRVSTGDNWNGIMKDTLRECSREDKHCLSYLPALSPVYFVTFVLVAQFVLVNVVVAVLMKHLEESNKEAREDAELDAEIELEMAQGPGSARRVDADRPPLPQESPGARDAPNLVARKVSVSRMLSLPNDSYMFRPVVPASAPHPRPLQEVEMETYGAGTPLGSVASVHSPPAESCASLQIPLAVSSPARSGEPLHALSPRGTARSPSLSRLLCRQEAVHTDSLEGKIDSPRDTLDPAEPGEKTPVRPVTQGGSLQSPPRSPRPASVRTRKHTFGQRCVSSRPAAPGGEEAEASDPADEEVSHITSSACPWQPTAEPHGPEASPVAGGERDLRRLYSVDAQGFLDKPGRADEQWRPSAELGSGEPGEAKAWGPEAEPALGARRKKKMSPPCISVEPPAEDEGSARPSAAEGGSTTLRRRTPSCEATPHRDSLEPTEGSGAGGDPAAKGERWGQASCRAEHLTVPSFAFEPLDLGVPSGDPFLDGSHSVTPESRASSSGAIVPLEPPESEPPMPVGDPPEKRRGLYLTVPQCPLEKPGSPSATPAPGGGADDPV", "format": "functional"}, "[5]": {"biological_target": "T1, Voltage-dependent T-type calcium channel subunit alpha-1H", "assay": "Inhibitors of T-Type Calcium Channels. [Related pubchem assays (depositor defined):AID449739, AID463087, AID489005, AID493041, AID504579, AID504584, AID504619, AID504628]", "format": "functional"}, "[6]": {"biological_target": "Aspartyl aminopeptidase (Plasmodium falciparum 3D7, UniProt Q8I2J3)", "sequence (Q8I2J3 whole entry)": "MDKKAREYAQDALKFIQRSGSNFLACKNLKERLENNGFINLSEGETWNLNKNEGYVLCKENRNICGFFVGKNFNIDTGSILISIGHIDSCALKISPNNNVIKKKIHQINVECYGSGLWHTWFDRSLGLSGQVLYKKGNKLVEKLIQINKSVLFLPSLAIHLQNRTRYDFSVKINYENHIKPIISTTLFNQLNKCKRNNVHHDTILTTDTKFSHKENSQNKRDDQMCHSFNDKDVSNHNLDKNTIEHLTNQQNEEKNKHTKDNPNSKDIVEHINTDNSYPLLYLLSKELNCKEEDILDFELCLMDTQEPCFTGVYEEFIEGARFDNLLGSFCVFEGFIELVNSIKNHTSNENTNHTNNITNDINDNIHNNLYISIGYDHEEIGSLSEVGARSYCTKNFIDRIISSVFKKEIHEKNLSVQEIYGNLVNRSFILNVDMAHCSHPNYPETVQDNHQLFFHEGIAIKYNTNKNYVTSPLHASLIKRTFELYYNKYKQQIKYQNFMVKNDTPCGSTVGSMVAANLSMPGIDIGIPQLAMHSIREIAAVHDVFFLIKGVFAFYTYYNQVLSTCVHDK"}, "[7]": {"biological_target": "Procathepsin L (Homo sapiens, UniProt P07711)"}, "[8]": {"biological_target": "T2, Cytochrome P450 3A4 (Homo sapiens, UniProt P08684)", "T2 sequence (P08684 whole entry)": "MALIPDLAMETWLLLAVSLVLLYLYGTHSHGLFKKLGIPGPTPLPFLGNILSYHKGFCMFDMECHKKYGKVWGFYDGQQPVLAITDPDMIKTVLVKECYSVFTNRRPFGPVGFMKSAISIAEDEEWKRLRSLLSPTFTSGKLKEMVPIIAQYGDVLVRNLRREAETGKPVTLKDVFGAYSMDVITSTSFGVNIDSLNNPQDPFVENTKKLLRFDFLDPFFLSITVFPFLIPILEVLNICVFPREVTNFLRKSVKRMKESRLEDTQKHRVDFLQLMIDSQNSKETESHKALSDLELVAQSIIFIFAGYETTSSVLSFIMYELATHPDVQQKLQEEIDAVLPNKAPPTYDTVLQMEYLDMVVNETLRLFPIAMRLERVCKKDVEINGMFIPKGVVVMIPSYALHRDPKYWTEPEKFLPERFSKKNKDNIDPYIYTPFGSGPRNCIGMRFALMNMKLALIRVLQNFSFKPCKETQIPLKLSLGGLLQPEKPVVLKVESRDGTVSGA", "settings": "Potency"}, "[9]": {"biological_target": "T2, Cytochrome P450 3A4", "settings": "read-out: Potency"}, "[10]": {"biological_target": "Heat shock protein HSP 90-alpha (Homo sapiens, UniProt P07900)", "format": "functional, organism-based"}, "[11]": {"biological_target": "T3, Hexokinase HKDC1 (Homo sapiens, UniProt Q2TB90)", "T3 sequence (Q2TB90 whole entry)": "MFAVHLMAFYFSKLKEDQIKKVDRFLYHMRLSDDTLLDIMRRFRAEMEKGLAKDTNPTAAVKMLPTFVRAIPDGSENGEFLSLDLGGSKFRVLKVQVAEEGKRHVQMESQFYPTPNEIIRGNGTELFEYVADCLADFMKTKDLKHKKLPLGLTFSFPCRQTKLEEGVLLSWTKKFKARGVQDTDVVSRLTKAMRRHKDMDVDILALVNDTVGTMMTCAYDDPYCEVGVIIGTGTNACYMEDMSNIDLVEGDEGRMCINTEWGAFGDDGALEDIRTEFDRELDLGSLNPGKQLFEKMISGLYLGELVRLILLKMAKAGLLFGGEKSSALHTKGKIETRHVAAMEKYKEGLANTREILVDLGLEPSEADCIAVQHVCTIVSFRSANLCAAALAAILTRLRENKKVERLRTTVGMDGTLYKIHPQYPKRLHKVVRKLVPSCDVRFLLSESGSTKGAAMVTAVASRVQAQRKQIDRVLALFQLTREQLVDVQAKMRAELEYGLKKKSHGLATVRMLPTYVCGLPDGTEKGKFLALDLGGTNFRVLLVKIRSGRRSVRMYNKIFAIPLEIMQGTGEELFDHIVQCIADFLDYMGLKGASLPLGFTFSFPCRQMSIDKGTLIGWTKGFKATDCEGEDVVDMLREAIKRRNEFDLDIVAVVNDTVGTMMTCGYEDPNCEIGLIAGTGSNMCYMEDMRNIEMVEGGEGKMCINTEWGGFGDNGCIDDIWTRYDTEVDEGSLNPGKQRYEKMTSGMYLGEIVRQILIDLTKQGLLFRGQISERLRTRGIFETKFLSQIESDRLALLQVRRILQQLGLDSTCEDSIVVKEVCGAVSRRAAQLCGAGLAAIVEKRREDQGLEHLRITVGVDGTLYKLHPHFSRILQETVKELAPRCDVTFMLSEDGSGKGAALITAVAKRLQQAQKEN", "assay": "HKDC1 hexokinase inhibitors, dose response, biochemical, W721R variant (AID 504729)", "format": "functional"}, "[12]": {"biological_target": "Cysteine protease ATG4B (Homo sapiens, UniProt Q9Y4P1)", "format": "functional"}, "[13]": {"biological_target": "T4, Ubiquitin-conjugating enzyme E2 N (Homo sapiens, UniProt P61088)", "T4 sequence (P61088 whole entry)": "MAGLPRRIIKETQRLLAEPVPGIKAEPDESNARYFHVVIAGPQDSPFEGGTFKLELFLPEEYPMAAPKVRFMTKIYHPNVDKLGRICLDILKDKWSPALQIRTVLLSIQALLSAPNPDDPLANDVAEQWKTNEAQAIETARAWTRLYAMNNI", "format": "functional"}, "[14]": {"biological_target": "T4, Ubiquitin-conjugating enzyme E2 N", "format": "functional", "remark": "listed apart in the source"}, "[15]": {"biological_target": "Beta-galactosidase (Escherichia coli, UniProt Q8VNN2)", "assay": "beta-galactosidase enzyme inhibitors and activators, dose response, artefact control for CCR6 antagonist project, biochemical, E. coli enzyme, set 3 (AID 504712)", "format": "functional"}, "[16]": {"biological_target": "Phospholipase A2 (Homo sapiens, UniProt P04054)", "format": "functional"}, "[17]": {"biological_target": "C-C chemokine receptor type 6 (Homo sapiens, UniProt P51684)", "sequence (P51684 whole entry)": "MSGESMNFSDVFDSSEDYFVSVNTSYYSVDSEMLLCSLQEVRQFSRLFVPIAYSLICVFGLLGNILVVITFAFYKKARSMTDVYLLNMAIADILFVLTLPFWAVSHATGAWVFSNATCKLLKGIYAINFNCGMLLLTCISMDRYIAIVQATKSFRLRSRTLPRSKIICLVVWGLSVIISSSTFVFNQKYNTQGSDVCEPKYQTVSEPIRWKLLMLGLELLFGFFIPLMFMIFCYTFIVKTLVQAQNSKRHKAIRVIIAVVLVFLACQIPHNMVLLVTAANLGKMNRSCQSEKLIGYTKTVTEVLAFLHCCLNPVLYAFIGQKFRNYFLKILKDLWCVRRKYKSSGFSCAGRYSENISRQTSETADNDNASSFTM", "assay": "CCR6 receptor antagonists, dose response, cell-based, luminescent beta-arrestin readout (AID 504728)", "format": "functional"}, "[18]": {"biological_target": "Large T antigen (Simian virus 40, UniProt P03070)", "sequence (P03070 whole entry)": "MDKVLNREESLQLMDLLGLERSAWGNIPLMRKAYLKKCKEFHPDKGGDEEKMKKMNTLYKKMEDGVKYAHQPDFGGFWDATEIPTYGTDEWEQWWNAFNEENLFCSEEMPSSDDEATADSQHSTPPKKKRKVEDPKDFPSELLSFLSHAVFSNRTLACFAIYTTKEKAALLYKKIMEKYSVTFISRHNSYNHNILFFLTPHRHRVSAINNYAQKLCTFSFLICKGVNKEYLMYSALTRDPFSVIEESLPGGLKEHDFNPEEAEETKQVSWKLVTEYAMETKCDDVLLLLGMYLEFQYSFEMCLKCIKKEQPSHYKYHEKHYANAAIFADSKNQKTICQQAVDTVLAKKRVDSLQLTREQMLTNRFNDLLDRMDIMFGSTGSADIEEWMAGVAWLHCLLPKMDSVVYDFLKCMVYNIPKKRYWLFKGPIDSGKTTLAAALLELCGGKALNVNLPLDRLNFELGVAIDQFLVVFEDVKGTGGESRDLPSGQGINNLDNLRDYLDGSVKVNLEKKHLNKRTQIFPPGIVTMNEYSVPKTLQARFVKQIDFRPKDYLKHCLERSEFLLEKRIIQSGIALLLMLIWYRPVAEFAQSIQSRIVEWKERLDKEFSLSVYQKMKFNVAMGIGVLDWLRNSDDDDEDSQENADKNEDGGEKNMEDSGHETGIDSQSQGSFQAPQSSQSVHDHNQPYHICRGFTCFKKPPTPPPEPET", "format": "functional, Betapolyomavirus macacae"}, "[19]": {"biological_target": "Bcl-2-related protein A1 (Mus musculus, UniProt Q07440)", "format": "functional"}},
  "note": "Structures can show the parent of a compound that is named as a salt. Activity calls are given as the source filed them.",
  "data": [
    {"smiles": "COc1cc(C=NNC(=O)c2ccc(O)cc2)ccc1OCC(=O)Nc1cccc([N+](=O)[O-])c1", "values": [
      {"measurement": "IC50", "setting": "[1]", "result": "> 100 µM (inactive)"},
      {"measurement": "IC50", "setting": "[2]", "result": "> 100 µM (inactive)"}
    ]},
    {"smiles": "COc1cccc(-c2cc(=O)c3cc(O)ccc3o2)c1", "values": [
      {"measurement": "AC50", "setting": "[3]", "result": "25.1 µM (inconclusive)"}
    ]},
    {"smiles": "Cc1cccc(NC(=O)C23CCC(C)(C2Br)C3(C)C)c1", "note": "(centres undefined)", "values": [
      {"measurement": "EC50", "setting": "[4]", "result": "2.64 µM (active)"},
      {"measurement": "EC50", "setting": "[5]", "result": "5.25 µM (active)"}
    ]},
    {"smiles": "Cc1cc(O)nc(SCC(=O)c2ccc(O)c(O)c2)n1", "values": [
      {"measurement": "IC50", "setting": "[6]", "result": "1.49 µM (active)"},
      {"measurement": "IC50", "setting": "[7]", "result": "> 59.6 µM (not active)"}
    ]},
    {"smiles": "O=c1cccc2n1C[C@H]1CNC[C@H]2C1", "values": [
      {"measurement": "AC50", "setting": "[8]", "result": "31.6 µM (inconclusive)"},
      {"measurement": "AC50", "setting": "[9]", "result": "31.6 µM (inconclusive)"}
    ]},
    {"smiles": "CCCCC(CC)CNC(=N)NC(=N)NCCCCCCNC(=N)NC(=N)NCC(CC)CCCC", "note": "(centres undefined) [ALEXIDINE HYDROCHLORIDE]", "values": [
      {"measurement": "AC50", "setting": "[10]", "result": "4.05 µM (active)"},
      {"measurement": "IC50", "setting": "[11]", "result": "14.2 µM (active)"},
      {"measurement": "IC50", "setting": "[12]", "result": "3.89 µM (active)"},
      {"measurement": "IC50", "setting": "[13]", "result": "1.73 µM (active)"},
      {"measurement": "IC50", "setting": "[14]", "result": "1.98 µM (active)"},
      {"measurement": "IC50", "setting": "[15]", "result": "> 66.6 µM (inactive)"},
      {"measurement": "IC50", "setting": "[16]", "result": "9.51 µM (active)"},
      {"measurement": "IC50", "setting": "[17]", "result": "25.9 µM (inactive)"},
      {"measurement": "IC50", "setting": "[18]", "result": "29.1 µM (active)"},
      {"measurement": "IC50", "setting": "[19]", "result": "5.95 µM (active)"}
    ]}
  ]
}
